What was measured:
[1] = Human Caco-2 passive permeability A to B Papp; assay type: in vitro ADME; conditions: apical pH 6.5, basolateral pH 7.4, efflux inhibitor cocktail
Procedure: An automated assay was used to determine the passive permeability of compounds in Caco-2 cell monolayers carried out over 2 hours with an apical pH of 6.5 and basolateral pH of 7.4. The Caco-2 AB inhibition assay is carried out with chemical inhibition of the three major efflux transporters ABCB1 (P-gp), ABCG2 (BCRP) and ABCC2 (MRP2) in Caco-2 cells. Incubation of both apical and basolateral is carried out with a cocktail of inhibitors (50 μM quinidine, 20 μM sulfasalazine and 100 μM benzbromarone). Samples were analyzed through LC/MS/MS to estimate the apparent permeability coefficients (Papp) of compounds across Caco-2 cell monolayers and results are quoted in units of ×10^−6 cm/s.

[2] = Human hepatocyte assay (metabolic stability); assay type: in vitro ADME; conditions: human hepatocytes
Procedure: The metabolic stability of compounds in human hepatocytes was assessed using the following protocol: • 1. Prepare 10 mM stock solutions of compound and control compounds in appropriate solvent (DMSO). Place incubation medium (L-15 Medium) in a 37° C. water bath, and allow warming for at least 15 minutes prior to use. • 2. Add 80 μL of acetonitrile to each well of the 96-well deep well plate (quenching plate). • 3. In a new 96-well plate, dilute the 10 mM test compounds and the control compounds to 100 μM by combining 198 μL of acetonitrile and 2 μL of 10 mM stock. • 4. Remove a vial of cryopreserved (less than −150° C.) human hepatocytes (LiverPool™ 10 Donor Human hepatocytes obtained from Celsis IVT. Chicago, Ill. (Product No. S01205)) from storage, ensuring that vials remain at cryogenic temperatures until thawing process ensues. As quickly as possible, thaw the cells by placing the vial in a 37° C. water bath and gently shaking the vials. Vials should remain in water bath until all ice crystals have dissolved and are no longer visible. After thawing is complete, spray vial with 70% ethanol, transfer the vial to a bio-safety cabinet. • 5. Open the vial and pour the contents into the 50 mL conical tube containing thawing medium. Place the 50 mL conical tube into a centrifuge and spin at 100 g for 10 minutes. […] Using Cellometer® Vision, count cells and determine the viable cell density. Cells with poor viability (<80% viability) are not acceptable for use. […] Transfer 247.5 μL of hepatocytes into each well of a 96-well cell culture plate. Place the plate on Eppendorf Thermomixer Comfort plate shaker to allow the hepatocytes to warm for 10 minutes. • 8. Add 2.5 μL of 100 μM test compound or control compounds into an incubation well containing cells, mix to achieve a homogenous suspension at 0.5 min, which when achieved, will define the 0.5 min time point. At the 0.5 min time, transfer 20 μL of incubated mixture to wells in a “Quenching plate” followed by vortexing. • 9. Incubate the plate at 37° C. at 900 rpm on an Eppendorf Thermomixer Comfort plate shaker. […] Centrifuge the quenching plates for 20 minutes at 4,000 rpm. 4 different compounds are pooled into one cassette and used for LC/MS/MS analysis.
All calculations were carried out using Microsoft Excel. Peak areas were determined from extracted ion chromatograms. In vitro intrinsic clearance (in vitro Clint, in […]) of parent compound was determined by regression analysis of the Ln percent parent disappearance vs. time curve.
V=incubation volume (0.25 mL);
N=number of hepatocytes per well (0.25×10^6 cells).

hERG potassium channel = hERG potassium channel (Homo sapiens (Human), UniProt Q12809); assay: hERG binding assay (automated patch clamp, CHO cells); assay type: cell-based; conditions: CHO cell line, Nanion Syncropatch 384PE
In short: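 CHO cells on automated patch clamp; compounds tested in quadruplicate. Currents evoked every 15 s from −80 mV holding by a 500 ms step to 60 mV then 500 ms to −40 mV.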

MCF7 xenografts = assay: Human parental MCF7 xenograft anti-tumour efficacy in mouse; assay type: in vivo; conditions: doses of 10 mg/kg and above, orally once a day for 21 days, male SCID mice
Procedure: MCF7 cells (ATCC) were grown in vitro in exponential phase prior to implant. Briefly, male SCID mice weighing 18 g or more (Envigo UK) were implanted subcutaneously on the back with estrogen pellets (0.5 mg, 21 day release from Innovative Research of America) under recoverable anaesthetic. One day later mice were inoculated subcutaneously on the left flank with 5 million MCF7 cells, prepared as 0.1 ml cell suspension in 1:1 RPMI (Gibco, Life Technologies) and matrigel (Corning). When tumours reached ˜250 mm^3 mice were randomised into groups of 9 mice (12 mice for vehicle control) and started receiving drug treatment. Compounds were prepared in vehicle (40% Tetraethylene Glycol (v/v), 7.5% Captisol (w/v) in water for injection) and given orally in a volume of 10 ml/kg once a day for 21 days at 0.5 mg/kg to 50 mg/kg. Tumours were measured twice a week and tumour volume calculated using the elliptical formula (pi/6×width×width×length). Data represent the geomean of tumour volume relative to the tumour volume on day of randomisation. Error bars are the 95% confidence interval (Graphpad Prism).

Sequence of hERG potassium channel (Q12809 whole entry): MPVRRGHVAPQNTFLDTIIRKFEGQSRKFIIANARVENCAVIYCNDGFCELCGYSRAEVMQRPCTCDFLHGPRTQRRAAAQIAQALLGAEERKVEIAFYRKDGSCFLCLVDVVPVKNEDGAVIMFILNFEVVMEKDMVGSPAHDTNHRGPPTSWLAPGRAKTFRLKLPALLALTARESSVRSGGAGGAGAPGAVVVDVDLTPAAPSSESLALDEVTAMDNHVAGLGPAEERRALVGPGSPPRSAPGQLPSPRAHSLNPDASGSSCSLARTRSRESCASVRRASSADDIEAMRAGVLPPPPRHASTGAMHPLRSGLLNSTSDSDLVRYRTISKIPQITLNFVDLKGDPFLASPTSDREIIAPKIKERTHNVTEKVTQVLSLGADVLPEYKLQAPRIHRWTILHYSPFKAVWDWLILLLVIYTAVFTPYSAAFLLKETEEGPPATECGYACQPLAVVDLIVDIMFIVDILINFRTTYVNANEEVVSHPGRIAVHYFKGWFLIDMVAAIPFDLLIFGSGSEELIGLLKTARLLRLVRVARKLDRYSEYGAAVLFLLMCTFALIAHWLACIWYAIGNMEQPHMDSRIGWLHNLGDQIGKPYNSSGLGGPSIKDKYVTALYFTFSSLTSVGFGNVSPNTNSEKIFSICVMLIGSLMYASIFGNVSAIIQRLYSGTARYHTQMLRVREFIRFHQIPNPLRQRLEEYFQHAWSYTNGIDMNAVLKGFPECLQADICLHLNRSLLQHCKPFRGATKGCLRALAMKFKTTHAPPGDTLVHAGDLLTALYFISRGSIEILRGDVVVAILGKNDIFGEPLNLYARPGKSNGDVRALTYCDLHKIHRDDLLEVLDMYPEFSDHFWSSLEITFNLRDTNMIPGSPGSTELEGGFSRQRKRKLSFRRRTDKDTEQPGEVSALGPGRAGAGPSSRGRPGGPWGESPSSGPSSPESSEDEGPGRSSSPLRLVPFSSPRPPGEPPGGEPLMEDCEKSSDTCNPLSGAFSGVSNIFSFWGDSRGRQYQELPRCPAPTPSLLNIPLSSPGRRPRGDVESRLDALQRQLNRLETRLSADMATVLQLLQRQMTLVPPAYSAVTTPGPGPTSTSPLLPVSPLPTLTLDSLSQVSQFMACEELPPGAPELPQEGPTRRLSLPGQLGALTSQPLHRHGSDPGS

| SMILES | Papp at 2 h [1] [×10⁻⁶ cm/s] | hepatocyte CLint at 1 µM [2] [µL/min/1e6 cells] | IC50 (hERG potassium channel) [µM] | effect on tumour growth (MCF7 xenografts) |
| --- | --- | --- | --- | --- |
| COc1cc(NC2CN(CCCF)C2)ccc1[C@@H]1c2ccc3[nH]ncc3c2C[C@@H](C)N1CC(F)F [Example 21, N-(4-((6S,8R)-7-(2,2-difluoroethyl)-8-methyl-6,7,8,9-tetrahydro-3H-pyrazolo[4,3-f]isoquinolin-6-yl)-3-methoxyphenyl)-1-(3-fluoropropyl)azetidin-3-amine] | 14.1 | 6 | 5.3 |  |
| C[C@@H]1Cc2c(ccc3[nH]ncc23)[C@@H](c2ccc(NC3CN(CCCF)C3)cn2)N1CC(F)(F)F [Example 17, N-(1-(3-fluoropropyl)azetidin-3-yl)-6-((6S,8R)-8-methyl-7-(2,2,2-trifluoroethyl)-6,7,8,9-tetrahydro-3H-pyrazolo[4,3-f]isoquinolin-6-yl)pyridin-3-amine] | 13.3 | 6 |  | tumour regression |
| COc1cc(NC2CN(CCCF)C2)ccc1[C@@H]1c2ccc3[nH]ncc3c2C[C@@H](C)N1CC(C)(C)F [Example 64, N-(4-((6S,8R)-7-(2-fluoro-2-methylpropyl)-8-methyl-6,7,8,9-tetrahydro-3H-pyrazolo[4,3-f]isoquinolin-6-yl)-3-methoxyphenyl)-1-(3-fluoropropyl)azetidin-3-amine] |  |  | 13 |  |
| C[C@@H]1Cc2c(ccc3[nH]nc(F)c23)[C@@H](c2ncc(NC3CN(CCCF)C3)cc2F)N1CC(F)(F)F [Example 33, 5-Fluoro-6-((6S,8R)-1-fluoro-8-methyl-7-(2,2,2-trifluoroethyl)-6,7,8,9-tetrahydro-3H-pyrazolo[4,3-f]isoquinolin-6-yl)-N-(1-(3-fluoropropyl)azetidin-3-yl)pyridin-3-amine] |  |  | 14 |  |
| C[C@@H]1Cc2c(ccc3[nH]ncc23)[C@@H](c2ccc(NC3CN(CCCF)C3)cc2)N1CC(F)F [Example 48, N-(4-((6R,8R)-7-(2,2-difluoroethyl)-8-methyl-6,7,8,9-tetrahydro-3H-pyrazolo[4,3-f]isoquinolin-6-yl)phenyl)-1-(3-fluoropropyl)azetidin-3-amine] |  | 4 |  |  |
| C[C@@H]1Cc2c(ccc3[nH]ncc23)[C@@H](c2ncc(NC3CN(CCCF)C3)cc2F)N1CC1(F)CC1 [Example 18, 5-fluoro-6-((6S,8R)-7-((1-fluorocyclopropyl)methyl)-8-methyl-6,7,8,9-tetrahydro-3H-pyrazolo[4,3-f]isoquinolin-6-yl)-N-(1-(3-fluoropropyl)azetidin-3-yl)pyridin-3-amine] |  | 3 | > 38 |  |
| COCC(F)(F)CN1[C@H](c2ccc(NC3CN(CCCF)C3)cc2OC)c2ccc3[nH]ncc3c2C[C@H]1C [Example 1, N-(4-((6S,8R)-7-(2,2-difluoro-3-methoxypropyl)-8-methyl-6,7,8,9-tetrahydro-3H-pyrazolo[4,3-f]isoquinolin-6-yl)-3-methoxyphenyl)-1-(3-fluoropropyl)azetidin-3-amine] |  | 11 | 10 |  |
| C[C@@H]1Cc2c(ccc3[nH]ncc23)[C@@H](c2ccc(NC3CN(CCCF)C3)cc2)N1CC(F)(F)F [Example 27, 1-(3-Fluoropropyl)-N-(4-((6R,8R)-8-methyl-7-(2,2,2-trifluoroethyl)-6,7,8,9-tetrahydro-3H-pyrazolo[4,3-f]isoquinolin-6-yl)phenyl)azetidin-3-amine] |  |  | 7.9 |  |
| C[C@@H]1Cc2c(ccc3[nH]ncc23)[C@@H](c2ccc(NC3CN(CCCF)C3)cn2)N1CC1(F)CC1 [Example 3, 6-((6S,8R)-7-((1-fluorocyclopropyl)methyl)-8-methyl-6,7,8,9-tetrahydro-3H-pyrazolo[4,3-f]isoquinolin-6-yl)-N-(1-(3-fluoropropyl)azetidin-3-yl)pyridin-3-amine] |  | 5 | > 36 |  |
| COCC(F)(F)CN1[C@H](c2ccc(NC3CN(CCCF)C3)cn2)c2ccc3[nH]ncc3c2C[C@H]1C [Example 2, 6-((6S,8R)-7-(2,2-difluoro-3-methoxypropyl)-8-methyl-6,7,8,9-tetrahydro-3H-pyrazolo[4,3-f]isoquinolin-6-yl)-N-(1-(3-fluoropropyl)azetidin-3-yl)pyridin-3-amine] |  | 6 | > 40 |  |
| C[C@@H]1Cc2c(ccc3[nH]ncc23)[C@@H](c2ncc(NC3CN(CCCF)C3)cc2F)N1CC(F)(F)F [Example 30, 5-fluoro-N-(1-(3-fluoropropyl)azetidin-3-yl)-6-((6S,8R)-8-methyl-7-(2,2,2-trifluoroethyl)-6,7,8,9-tetrahydro-3H-pyrazolo[4,3-f]isoquinolin-6-yl)pyridin-3-amine] |  |  | > 33 |  |
| COc1cc(NC2CN(CCCF)C2)ccc1[C@@H]1c2ccc3[nH]ncc3c2C[C@@H](C)N1CC(F)(F)F [Example 28, 1-(3-fluoropropyl)-N-(3-methoxy-4-((6S,8R)-8-methyl-7-(2,2,2-trifluoroethyl)-6,7,8,9-tetrahydro-3H-pyrazolo[4,3-f]isoquinolin-6-yl)phenyl)azetidin-3-amine] | 24 | 5 | 7.8 |  |
| COc1cc(NC2CN(CCCF)C2)ccc1[C@@H]1c2ccc3[nH]ncc3c2C[C@@H](C)N1CC1(F)CC1 [Example 6, N-(4-((6S,8R)-7-((1-fluorocyclopropyl)methyl)-8-methyl-6,7,8,9-tetrahydro-3H-pyrazolo[4,3-f]isoquinolin-6-yl)-3-methoxyphenyl)-1-(3-fluoropropyl)azetidin-3-amine] | 1.8 | 2 | 9.1 |  |
| C[C@@H]1Cc2c(ccc3[nH]ncc23)[C@@H](c2ccc(NC3CN(CCCF)C3)cn2)N1CC(F)(F)CO [Example 16, 2,2-difluoro-3-((6S,8R)-6-(5-((1-(3-fluoropropyl)azetidin-3-yl)amino)pyridin-2-yl)-8-methyl-3,6,8,9-tetrahydro-7H-pyrazolo[4,3-f]isoquinolin-7-yl)propan-1-ol] | 1.7 |  | > 40 |  |
| C[C@@H]1Cc2c(ccc3[nH]ncc23)[C@@H](c2ccc(NC3CN(CCCF)C3)cn2)N1CC(F)F [Example 25, 6-((6S,8R)-7-(2,2-difluoroethyl)-8-methyl-6,7,8,9-tetrahydro-3H-pyrazolo[4,3-f]isoquinolin-6-yl)-N-(1-(3-fluoropropyl)azetidin-3-yl)pyridin-3-amine] | 5.9 | 5 | 28 |  |
| COc1cc(NC2CN(CCCF)C2)ccc1[C@@H]1c2ccc3[nH]ncc3c2C[C@@H](C)N1CC(C)(F)F [Example 19, N-(4-((6S,8R)-7-(2,2-difluoropropyl)-8-methyl-6,7,8,9-tetrahydro-3H-pyrazolo[4,3-f]isoquinolin-6-yl)-3-methoxyphenyl)-1-(3-fluoropropyl)azetidin-3-amine] |  | 5 | 5.4 |  |

From patent publication US10131663B2, “Chemical compounds” (AstraZeneca AB, priority 2016, dated 2018)
